Measured values reported in article PMC9230590, “Pharmacokinetics and Tissue Distribution of Enavogliflozin in Mice and Rats” (Pharmaceutics, 2022).
Like-named read-outs stand apart in the source and are kept apart here.

Key:
[1] = parameters: method as in PMID 32183468; conditions: mice; cited from earlier work
[2] = Pharmacokinetics after intravenous injection in mice; type: in vivo, ICR mice; conditions: for AUC(0-inf) / AUC(0-t) / half-life / MRT / clearance / Vd: ICR, mouse; for AUC(0-inf) / AUC(0-t) / half-life / MRT / clearance / Vd / Co: plasma; for AUC∞/D / Co/D: dose normalized
Protocol: Fifty-four ICR mice were randomly divided into nine groups (n = 6 per group; Table 1) and intravenously administered an enavogliflozin solution at doses of 0.3, 1, and 3 mg/kg. The drug was dissolved in a mixture of 10% DMSO and 90% saline and injected via the tail vein. Before blood sampling, mice were anesthetized for 5 min using 2% isoflurane in a vaporizer with an oxygen flow of 0.8 L/min. Blood sampling used a sparse sampling method via the right or left retro-orbital vein using heparinized capillary tubes (Heinz Herenz, Hamburg, Germany). Final blood was collected from the abdominal artery using a heparin-treated 1 mL syringe (Jung Lim Co. Ltd., Choong-Buk, Korea) under isoflurane anesthesia (Table 1). Blood samples were collected at 0, 0.083, 0.25, 0.5, 1, 2, 4, 8, and 24 h and centrifuged at 12,000× g for 1 min to separate plasma. An aliquot (30 µL) of each plasma sample was stored at −80 °C until enavogliflozin analysis.
(§1) Concentrations of enavogliflozin in plasma and tissue homogenate samples were analyzed using an Agilent 6430 triple quadrupole liquid chromatography-mass spectrometry (LC–MS/MS) system (Agilent, Wilmington, DE, USA) following a previously published method.
(§2) The data were expressed as the means ± standard deviation for the groups. Pharmacokinetic parameters, such as the area under the plasma concentration–time curve during the period of observation (AUClast), AUC to infinite time (AUC∞), clearance (CL), and volume of distribution at steady-state (Vd,ss), the terminal half-life (t1/2), and mean residence time (MRT) were calculated using non-compartment analysis with WinNonlin software (version 5.1; Pharsights, Cary, NC, USA). The AUC ratios were calculated by dividing the AUClast of enavogliflozin in the tissue samples by the plasma AUClast values of enavogliflozin [15].

hepatocytes = tested on: hepatocytes; parameters: method as in PMID 32932946; conditions: human cells (hepatocytes); cited from earlier work
[3] = Tissue distribution after single or repeated oral administration (7 or 14 days) in mice; type: in vivo, ICR mice; conditions: for Kp / AUC(0-t): ICR, mouse, po, 1 mg/kg; for Kp: read-out: AUC Ratio (AUC48 h, tissue / AUC48 h, plasma); for AUC(0-t): plasma, read-out: AUC48 h; for AUC48 h: oral 1 mg/kg
Protocol: Thirty-five ICR mice were randomly divided into five groups (n = 7 per sampling time point) and administered with an enavogliflozin solution (1 mg/kg, once daily) for 14 days via oral gavage. Another thirty-five ICR mice were randomly divided into five groups (n = 7 per sampling time point) and administered with an enavogliflozin solution (1 mg/kg, once daily) for 7 days via oral gavage. The other thirty-five ICR mice were randomly divided into five groups (n = 7 per sampling time point) and administered with an enavogliflozin solution at a dose of 1 mg/kg via oral gavage. Blood samples (approximately 0.2 mL) were collected at 1, 2, 8, 24, and 48 h via the abdominal artery. Subsequently, whole tissues, including kidney, liver, small intestine, and large intestine, were isolated. An aliquot (30 µL) of plasma and aliquots (50 µL) of tissue homogenate samples were prepared and stored with the same procedures described above.
as §1, §2

OC[C@H]1O[C@@H](c2cc(Cc3ccc(C4CC4)cc3)c(Cl)c3c2CCO3)[C@H](O)[C@@H](O)[C@@H]1O [enavogliflozin, (2S,3R,4R,5S,6R)-2-(7-chloro-6-(4-cyclopropylbenzyl) -2,3-dihydrobenzofuran-4-yl)-6-(hydroxymethyl)tetrahydro-2H-pyran-3,4,5-triol]
ratio of AUC in kidney to AUC in plasma [1]: 85.0 ± 16.1 | AUC(0-inf) ([2]; IV 0.3 mg/kg): 512 ± 30.7 ng·h/mL | AUC(0-t) ([2]; IV 0.3 mg/kg): 479 ± 33.6 ng·h/mL | half-life ([2]; IV 0.3 mg/kg): 6 ± 1.3 h | AUC(0-inf) ([2]; IV 1 mg/kg): 1630 ± 336 ng·h/mL | AUC(0-t) ([2]; IV 1 mg/kg): 1510 ± 282 ng·h/mL | half-life ([2]; IV 1 mg/kg): 6.5 ± 1.4 h | AUC(0-inf) ([2]; IV 3 mg/kg): 5080 ± 1060 ng·h/mL | AUC(0-t) ([2]; IV 3 mg/kg): 4660 ± 998 ng·h/mL | half-life ([2]; IV 3 mg/kg): 6.6 ± 0.5 h | MRT ([2]; IV 0.3 mg/kg): 5.2 ± 0.4 h | clearance ([2]; IV 0.3 mg/kg, read-out: CL): 9.8 ± 0.6 mL/min/kg | Vd ([2]; IV 0.3 mg/kg, read-out: Vd,ss): 3.1 ± 0.3 L/kg | MRT ([2]; IV 1 mg/kg): 4.9 ± 0.5 h | clearance ([2]; IV 1 mg/kg, read-out: CL): 10.7 ± 2.5 mL/min/kg | Vd ([2]; IV 1 mg/kg, read-out: Vd,ss): 3.1 ± 0.6 L/kg | MRT ([2]; IV 3 mg/kg): 5.2 ± 0.8 h | clearance ([2]; IV 3 mg/kg, read-out: CL): 10.2 ± 2.1 mL/min/kg | Vd ([2]; IV 3 mg/kg, read-out: Vd,ss): 3.2 ± 0.5 L/kg | clearance ([2]; IV 0.3–3 mg/kg, all doses together, read-out: Systemic clearance): 10.1 ± 1.59 mL/min/kg | Vd ([2]; IV, range over doses 0.3–3 mg/kg, read-out: steady-state volume of distribution (Vd,ss)): 3.1 to 3.2 L/kg | AUC∞/D ([2]; IV 0.3 mg/kg): 1706.8 ± 102.3 | Co/D ([2]; IV 0.3 mg/kg): 416.8 ± 31.3 | Co ([2]; IV 0.3 mg/kg): 125.0 ± 9.4 ng/mL | AUC∞/D ([2]; IV 1 mg/kg): 1626.7 ± 335.6 | Co/D ([2]; IV 1 mg/kg): 408.6 ± 103.2 | Co ([2]; IV 1 mg/kg): 408.6 ± 103.2 ng/mL | AUC∞/D ([2]; IV 3 mg/kg): 1694.3 ± 354.5 | Co/D ([2]; IV 3 mg/kg): 424.7 ± 62.2 | Co ([2]; IV 3 mg/kg): 1274.1 ± 186.6 ng/mL | In vitro hepatic clearance (hepatocytes): 4.5 mL/min/kg | Kp ([3]; kidney, repeated dose for 7 days, kidney): 37.6 ± 5.9 | Kp ([3]; kidney, repeated dose for 14 days, kidney): 38.4 ± 18 | Kp ([3]; kidney, single dose, kidney): 38.7 ± 6.3 | Kp ([3]; large intestine, repeated dose for 7 days, large intestine): 2.33 ± 0.34 | Kp ([3]; large intestine, repeated dose for 14 days, large intestine): 2.2 ± 0.71 | Kp ([3]; large intestine, single dose, large intestine): 3.24 ± 1.1 | Kp ([3]; liver, repeated dose for 7 days, liver): 3.77 ± 0.73 | Kp ([3]; liver, repeated dose for 14 days, liver): 4.37 ± 2.6 | Kp ([3]; liver, single dose, liver): 4.85 ± 0.64 | AUC(0-t) ([3]; repeated dose for 7 days): 2090 ± 290 ng·h/mL | AUC(0-t) ([3]; repeated dose for 14 days): 2360 ± 690 ng·h/mL | AUC(0-t) ([3]; single dose): 2130 ± 270 ng·h/mL | Kp ([3]; small intestine, repeated dose for 7 days, small intestine): 4.5 ± 0.89 | Kp ([3]; small intestine, repeated dose for 14 days, small intestine): 3.4 ± 1.5 | Kp ([3]; small intestine, single dose, small intestine): 3.47 ± 0.49 | AUC48 h ([3]; repeated dose for 7 days, kidney): 77.2 ± 6.3 µg·h/g | AUC48 h ([3]; repeated dose for 7 days, large intestine): 4.88 ± 1.1 µg·h/g | AUC48 h ([3]; repeated dose for 7 days, liver): 7.89 ± 2.1 µg·h/g | AUC48 h ([3]; repeated dose for 7 days, small intestine): 9.39 ± 2.1 µg·h/g | AUC48 h ([3]; repeated dose for 14 days, kidney): 81.6 ± 4.8 µg·h/g | AUC48 h ([3]; repeated dose for 14 days, large intestine): 4.90 ± 1.5 µg·h/g | AUC48 h ([3]; repeated dose for 14 days, liver): 8.85 ± 1.8 µg·h/g | AUC48 h ([3]; repeated dose for 14 days, small intestine): 7.46 ± 2.3 µg·h/g | AUC48 h ([3]; single dose, kidney): 80.9 ± 5.1 µg·h/g | AUC48 h ([3]; single dose, large intestine): 5.68 ± 1.6 µg·h/g | AUC48 h ([3]; single dose, liver): 10.2 ± 1.0 µg·h/g | AUC48 h ([3]; single dose, small intestine): 7.30 ± 0.77 µg·h/g
